Reference: patent publication US8012975B2, “Antitumoral analogs of ET-743” (Pharma Mar, S.A., priority 2000, dated 2011)
Where two headings read alike, the source gives them in different places.

What was measured:
HL60 [1] = conditions: human
Molt 3 [2] = conditions: human
H9 [3] = test system: H9
Hut 78 = conditions: human
MC116 [4] = conditions: human
RAMOS [5] = conditions: human
5637 [6] = test system: 5637
786-O = test: Cytotoxic activity (M) panel, Renal 786-O; conditions: Homo sapiens, 786-0, read-out: CYTOTOXIC ACTIVITY (M) 786-O
FADU = test: Cytotoxic activity (M) panel, Pharnynx FADU; conditions: Homo sapiens, read-out: CYTOTOXIC ACTIVITY (M) FADU
Hs746t = test: Cytotoxic activity (M) panel, Gastric Hs746t; conditions: Homo sapiens, read-out: CYTOTOXIC ACTIVITY (M) Hs746t
SK-HEP-1 [7] = test: Cytotoxic activity (M) panel, Liver SK-HEP-1; conditions: Homo sapiens, SK-HEP1, read-out: CYTOTOXIC ACTIVITY (M) SK-HEP-1
PANC-1 = test: Cytotoxic activity (M) panel, Pancreas PANC-1; conditions: Homo sapiens, PANC-1, read-out: CYTOTOXIC ACTIVITY (M) PANC-1
MEL-28 [8] = test: Cytotoxic activity (M) panel, Melanoma Mel-28; conditions: Homo sapiens, SK-MEL-28, read-out: CYTOTOXIC ACTIVITY (M) Mel-28
Y-79 = test: Cytotoxic activity (M) panel, Retinoblastoma Y-79; conditions: Homo sapiens, Y79, read-out: CYTOTOXIC ACTIVITY (M) Y-79
CHSA = test: Cytotoxic activity (M) panel, Chondrosarcoma CHSA; conditions: read-out: CYTOTOXIC ACTIVITY (M) CHSA
OSA-FH [9] = test: Cytotoxic activity (M) panel, Osteosarcoma OSA-FH; conditions: read-out: CYTOTOXIC ACTIVITY (M) OSA-FH
SK-HEP-1 [10] = test system: SK-HEP-1
A549 = test: Cytotoxic activity (M) panel, NSCL A549; conditions: Homo sapiens, A549, read-out: CYTOTOXIC ACTIVITY (M) A549
MX-1 = test: Cytotoxic activity (M) panel, Breast MX-1; conditions: Homo sapiens, MX1, read-out: CYTOTOXIC ACTIVITY (M) MX-1
HT-29 [11] = test: Cytotoxic activity (M) panel, Colon HT-29; conditions: Homo sapiens, HT-29, read-out: CYTOTOXIC ACTIVITY (M) HT-29
5637 [12] = test: Cytotoxic activity (M) panel, Bladder 5637; conditions: read-out: CYTOTOXIC ACTIVITY (M) 5637
PC3 [13] = test: Cytotoxic activity (M) panel, Prostate PC3; conditions: Homo sapiens, PC-3, read-out: CYTOTOXIC ACTIVITY (M) PC3
NCI-H187 [14] = test: Cytotoxic activity (M) panel, SCL NCI-H187; conditions: Homo sapiens, NCI-H187, read-out: CYTOTOXIC ACTIVITY (M) NCI-H187
SK-OV-3 = test: Cytotoxic activity (M) panel, Ovary SK-OV-3; conditions: Homo sapiens, SK-OV-3, read-out: CYTOTOXIC ACTIVITY (M) SK-OV-3
LNCAP = test: Cytotoxic activity (M) panel, Prostate LNCAP; conditions: Homo sapiens, read-out: CYTOTOXIC ACTIVITY (M) LNCAP
DU-145 [15] = test: Cytotoxic activity (M) panel, Prostate DU-145; conditions: Homo sapiens, DU-145, read-out: CYTOTOXIC ACTIVITY (M) DU-145
SW-694 = test: Cytotoxic activity (M) panel, Fibrosarcoma SW-694; conditions: read-out: CYTOTOXIC ACTIVITY (M) SW-694
[16] = background statement, no test described; cited from earlier work
K562 = test: cells; conditions: Homo sapiens, K562, read-out: CYTOTOXIC ACTIVITY (M) K562
H9 [17] = test: cells; conditions: Homo sapiens, H9, read-out: CYTOTOXIC ACTIVITY (M) H9, leukemias & lymphomas, Lymphoma T-cell, line H9
HL60 [18] = test: cells; conditions: Homo sapiens, HL-60, read-out: CYTOTOXIC ACTIVITY (M) HL60, leukemias & lymphomas, ALL Promyelocytic leukemia, line HL60
RAMOS [19] = test: cells; conditions: Homo sapiens, read-out: CYTOTOXIC ACTIVITY (M) RAMOS, leukemias & lymphomas, Lymphoma Burkitts B celll, line RAMOS
Molt 3 [20] = test: Cytotoxic activity (M) panel, Acute lymphoblastic Molt 3; conditions: Homo sapiens, MOLT-3, read-out: CYTOTOXIC ACTIVITY (M) Molt 3, leukemias & lymphomas, ALL Acute lymphoblastic, line Molt 3
MC116 [21] = test: Cytotoxic activity (M) panel, Lymphoma undifferentiated MC116; conditions: Homo sapiens, MC116, read-out: CYTOTOXIC ACTIVITY (M) MC116, leukemias & lymphomas, Lymphoma undifferentiated, line MC116
OSA-FH [22] = test system: OSA-FH
PC3 [23] = test system: PC3
NCI-H187 [24] = test system: NCI-H187
[25] = Cytotoxic activity IC50, CV-1; conditions: African green monkey, CV-1 cells
P-388 = test: Cytotoxic activity IC50, P-388; conditions: Mus musculus, P388, read-out: CYTOTOXIC ACTIVITIY IC50 (μM) P-388
A-549 = test: Cytotoxic activity IC50, A-549; conditions: Homo sapiens, A549, read-out: CYTOTOXIC ACTIVITIY IC50 (μM) A-549
HT-29 [26] = test: Cytotoxic activity IC50, HT-29; conditions: Homo sapiens, HT-29, read-out: CYTOTOXIC ACTIVITIY IC50 (μM) HT-29
MEL-28 [27] = test: Cytotoxic activity IC50, MEL-28; conditions: Homo sapiens, SK-MEL-28, read-out: CYTOTOXIC ACTIVITIY IC50 (μM) MEL-28
DU-145 [28] = test: Cytotoxic activity IC50, DU-145; conditions: Homo sapiens, DU-145, read-out: CYTOTOXIC ACTIVITIY IC50 (μM) DU-145

Compound	IC50 (786-O) [M]	IC50 (FADU) [M]	IC50 (Hs746t) [M]	IC50 (SK-HEP-1 [7]) [M]	IC50 (PANC-1) [M]	IC50 (MEL-28 [8]) [M]	IC50 (Y-79) [M]	IC50 (CHSA) [M]	IC50 (OSA-FH [9]) [M]	IC50 (MX-1) [M]	IC50 (HT-29 [11]) [M]	IC50 5637 [12] [M]	IC50 (PC3 [13]) [M]	IC50 (NCI-H187 [14]) [M]	IC50 (SK-OV-3) [M]	IC50 (LNCAP) [M]	also measured
COc1c(C)cc2c(c1O)[C@@H]1C3Cc4c(OC(C)=O)c(C)c5c(c4[C@H](COC(=O)/C=C/c4ccccc4)N3[C@@H](O)[C@H](C2)N1C)OCO5 (stereo partly drawn) [drawing 239]																	IC50 (HL60 [1]): 3.1 nM; IC50 (Molt 3 [2]): 0.0869 nM; IC50 (H9 [3]; human): 21.7 nM; IC50 (Hut 78): 48.1 nM; IC50 (MC116 [4]): 0.0527 nM; IC50 (RAMOS [5]): 1.86 nM
COc1c(C)cc2c(c1O)[C@@H]1C3Cc4c(OC(C)=O)c(C)c5c(c4[C@H](CNC(=O)Cc4ccccc4)N3[C@@H](O)[C@H](C2)N1C)OCO5 (stereo partly drawn) [drawing 217]	1e-08	1.14e-09	1.37e-07	9.5e-09	1.03e-08	4.48e-09	7.78e-09	1.09e-08	9.5e-09								CYTOTOXIC ACTIVITY (M) 5637 5637 [6]: 3.18 to 09 M
COc1c(C)cc2c(c1O)[C@@H]1C3Cc4c(OC(C)=O)c(C)c5c(c4[C@H](COC(=O)/C=C/c4cccc(C(F)(F)F)c4)N3[C@@H](O)[C@H](C2)N1C)OCO5 (stereo partly drawn) [drawing 233]	1.46e-08	4.59e-07	3.57e-08		1.03e-08	1.76e-08	8.85e-10	2.53e-08	6.34e-08	2.81e-08	4.08e-07	1.14e-08	7.88e-08	8.02e-10	7.03e-06	5.98e-07	CYTOTOXIC ACTIVITY (M) SK-HEP-1 (SK-HEP-1 [10]): 1.63 to 08 M; IC50 (A549): 2.81e-06 M; IC50 (DU-145 [15]): 7.03e-08 M; IC50 (SW-694): 3.38e-06 M
COC1=C(C)C(=O)C2=C(C1=O)[C@@H]1[C@@H]3Cc4c(OC(=O)CO)c(C)c(OC)c(O)c4[C@H](CNC(=O)C(C)=O)N3[C@@H](C#N)[C@H](C2)N1C [Saframycin R]																	toxicity [16]: moderate toxicity
COc1c(C)cc2c(c1O)[C@@H]1C3Cc4c(OC(C)=O)c(C)c5c(c4[C@H](COC(=O)/C=C/c4ccccc4)N3[C@@H](O)[C@H](C2)N1C)OCO5 (stereo partly drawn) [drawing 238]																	IC50 (HL60 [1]): 13.4 nM; IC50 (Molt 3 [2]): 2.48 nM; IC50 (Hut 78): 7.31 nM; IC50 (MC116 [4]): 6.38 nM; IC50 (RAMOS [5]): 0.715 nM; IC50 (K562): 6.13e-08 M; IC50 (H9 [17]): 1.91e-08 M
CCC(=O)N[C@@H](C)C(=O)NC[C@H]1c2c(c(OC(C)=O)c(C)c3c2OCO3)CC2[C@H]3c4c(cc(C)c(OC)c4O)C[C@@H]([C@H](O)N21)N3C (stereo partly drawn) [drawing 232]																	CYTOTOXIC ACTIVITY (M) H9 (H9 [3]): 2.43 to 08 M; IC50 (HL60 [18]): 7.36e-09 M; IC50 (K562): 1.18e-08 M; IC50 (RAMOS [19]): 5.01e-09 M; IC50 (Molt 3 [20]): 9.86e-10 M; IC50 (MC116 [21]): 1.49e-09 M
COc1c(C)cc2c(c1O)[C@@H]1C3Cc4c(OC(C)=O)c(C)c5c(c4[C@H](CNC(=O)[C@H](C)NC(=O)Cc4ccccc4)N3[C@@H](O)[C@H](C2)N1C)OCO5 (stereo partly drawn) [drawing 216]	2.9e-09	3.77e-08	6.25e-09	9.03e-10	2.58e-09	1.13e-09	1.31e-11	2.25e-09		2.85e-06	1.2e-10	7.85e-10	9.34e-09	2.07e-12			CYTOTOXIC ACTIVITY (M) OSA-FH (OSA-FH [22]): 1.35 to 08 M
CCCC(=O)NC[C@H]1c2c(c(OC(C)=O)c(C)c3c2OCO3)CC2[C@H]3c4c(cc(C)c(OC)c4O)C[C@@H]([C@H](O)N21)N3C (stereo partly drawn) [drawing 225]	6.55e-09	7.94e-09	2.97e-08	5.07e-09	2.9e-09	3.05e-08	3.14e-09	1.73e-08	8.56e-08	2.5e-06		2.81e-09		3.98e-11	2.21e-07	5.39e-09	CYTOTOXIC ACTIVITY (M) PC3 (PC3 [23]): 1.46-08 M
COc1c(C)cc2c(c1O)[C@@H]1C3Cc4c(OC(C)=O)c(C)c5c(c4[C@H](CNC(=O)/C=C/c4ccccc4)N3[C@@H](O)[C@H](C2)N1C)OCO5 (stereo partly drawn) [drawing 213]	1.72e-09	3.71e-10	7.1e-11	3.15e-09	1.29e-10	2.18e-09	8.85e-11	1.39e-09	1.09e-09	2.38e-09	2.12e-09	1.91e-10	4.7e-09		8.74e-09	3.94e-11	IC50 (NCI-H187 [24]): 0.0778 pM; IC50 (DU-145 [15]): 2.22e-09 M; IC50 (SW-694): 1.39e-06 M
COCOc1c(OC)c(C)cc2c1[C@@H]1C3Cc4c(OC(=O)C(F)(F)C(F)(F)C(F)(F)F)c(C)c5c(c4[C@H](CNC(=O)CCc4ccccc4)N3[C@@H](C#N)[C@H](C2)N1C)OCO5 (stereo partly drawn)																	IC50 [25]: 500 nM; IC50 (P-388): 0.5 µM; IC50 (A-549): 0.5 µM; IC50 (HT-29 [26]): 0.5 µM; IC50 (MEL-28 [27]): 0.5 µM; IC50 (DU-145 [28]): 0.5 µM
